Assay results taken from US20160238590A1, “COMPOSITIONS AND METHODS RELATED TO OAT SENSITIVITY” (IMMUSANT, INC., priority 2013, published 2016).

Experiments:
Format in all cases: cell-based, human
[1] = test system: PBMC; test: IFN-γ ELISpot on PBMC of CD patients after 3-day barley challenge; conditions: for response following barley challenge: 3 oats responders, titrating concentrations (FIG. 1b); for patients responding following pure barley challenge: 3 patients that had previously responded to avenin peptides following oats challenge
In short: (§1)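 PBMC from HLA-DQ2.5+/DQ8+ biopsy-proven coeliac patients on gluten-free diet ≥4 weeks, collected on day 6 after starting a 3-day oral challenge (oats 100 g/day, barley 150 g/day, or wheat/barley/rye muffins 22-25 g each daily). Responses to avenin, hordein and gluten peptide libraries, some deamidated or tTG-treated, measured by IFN-γ ELISpot.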

[2] = test system: PBMC; test: IFN-γ ELISpot on PBMC of CD patients after combined wheat, barley, and rye challenge
Excerpt: Australian Caucasian HLA-DQ2.5^+ and/or HLA-DQ8^+ CD subjects were recruited by advertisement in the Coeliac Society of Victoria newsletter and all had biopsy-proven CD conforming to ESPGHAN criteria. Patients had been on strict gluten free diet for at least 4 weeks prior to commencing grain challenge. Patients underwent 3-day grain challenge with oats, barley, or combined wheat, barley, and rye muffins, and 6 days after commencement, blood was collected. Day 0 responses were not observed in the selection of patients tested, as described previously^8.
Oats challenge consisted of 100 g dry weight daily of one of three commercial brands of oats: one not tested for wheat contamination (Uncle Toby's; Oats #1), and two shown by R5 ELISA to contain less than 20 ppm wheat gluten (Tilquhilie Pudding; Oats #2 and Freedom Food; Oats #3). Barley challenge consisted of pearl barley (Ward McKenzie) cooked into a risotto (150 g dry weight daily) and the wheat challenge consisted of four 50 g slices of wheat bread daily (Baker's Delight white loaf cut to toasting thickness). The combined wheat, barley, and rye challenge consisted of muffins baked with wheat flour (White Wings), barley flour (Four Leaf Milling), and rye flour (Four Leaf Milling; 22-25 g dry weight each daily). A symptom diary based on a […] Likert scale was completed by participants daily from baseline until day 6.
Two avenin peptide libraries were utilized for epitope screening. These were designed using avenin sequences from GenBank and a customized algorithm, as previously described^9. The initial library consisted of 199 screening-grade 20 mers including all possible 12 mers (Mimotopes). This library was screened with and without tTG pre-treatment. The second library consisted of additional avenin sequences that were synthesized with glutamate substitution at sites predicted to be deamidated by published algorithms^10, 11 removing the requirement for tTG treatment. This library contained 369 screening-grade 20 mers, including all possible 12 mers (Pepscan). The second round avenin library contained wild-type and deamidated versions of the most immunogenic sequences (25 high quality 16 mers from Mimotopes). High quality peptides containing previously described immunogenic sequences from wheat, barley, and rye were used to test for cross-reactivity^8 (Pepscan). High quality hordein and avenin peptides for TCC testing and biochemical studies were ordered from Pepscan, Mimotopes, or GL Biochem.
Peripheral blood mononuclear cells (PBMC) were isolated from heparinized whole blood using Ficoll-Paque™ Plus density-gradient centrifugation (GE Healthcare). IFN-γ ELISpot (Mabtech) was set up as previously described^8.

[3] = test system: Patient 9 TCC-02; test: IFN-γ ELISpot with T cell clone; conditions: TCC Patient 9 TCC-02, peptide 50 μg/mL
In short: (§2)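 Patient PBMC were labeled with CFSE and cultured with antigen for seven days. Dividing cells were sorted singly onto feeders with IL-2, IL-4 and anti-CD3. Expanded clones were then screened by IFN-γ ELISpot against antigen on irradiated HLA-matched PBMC.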

[4] = test system: Patient 2 TCC-02; test: IFN-γ ELISpot with T cell clone; conditions: TCC Patient 2 TCC-02, peptide 25 μg/mL
In short: as §2

[5] = test system: Patient 8 TCC-01; test: IFN-γ ELISpot with T cell clone; conditions: TCC Patient 8 TCC-01, peptide 25 μg/mL
In short: as §2

[6] = test system: Patient 14 TCC-01; test: IFN-γ ELISpot with T cell clone; conditions: TCC Patient 14 TCC-01, peptide 50 μg/mL
In short: as §2

[7] = test system: Patient 2 TCC-03; test: IFN-γ ELISpot with T cell clone; conditions: TCC Patient 2 TCC-03, peptide 25 μg/mL
In short: as §2

[8] = test system: Patient 2 TCC-01; test: IFN-γ ELISpot with T cell clone
In short: as §2

[9] = test system: Patient 10 TCC-01; test: IFN-γ ELISpot with T cell clone; conditions: TCC Patient 10 TCC-01, peptide 50 μg/mL
In short: as §2

[10] = test system: Patient 6 TCC-01; test: IFN-γ ELISpot with T cell clone
In short: as §2

[11] = test system: Patient 9 TCC-01; test: IFN-γ ELISpot with T cell clone; conditions: TCC Patient 9 TCC-01, peptide 50 μg/mL
In short: as §2

[12] = test system: PBMC; test: IFN-γ ELISpot on PBMC of CD patients on day 6 after 3-day oats challenge
In short: as §1

[13] = Patient 1, peptide 25 μg/ml, after barley challenge
[14] = Patient 2, peptide 25 μg/ml, after barley challenge
[15] = Patient 3, peptide 25 μg/ml, after barley challenge
[16] = 19 HLA-DQ2.5+ CD patients, peptide 10 μg/mL (FIG. 1a)
[17] = TCC Patient 2 TCC-01, peptide 25 μg/mL
[18] = TCC Patient 2 TCC-01, peptide 50 μg/mL
[19] = TCC Patient 6 TCC-01, peptide 25 μg/mL
[20] = TCC Patient 6 TCC-01, peptide 50 μg/mL

| Sequence | response following barley challenge [1] | patients responding following pure barley challenge [1] | IFN-γ ELISpot response (raw SFU) [1, 13] | significant SFU as a percentage of maximal peptide SFU [1, 13] | IFN-γ ELISpot response (raw SFU) [1, 14] | significant SFU as a percentage of maximal peptide SFU [1, 14] | IFN-γ ELISpot response (raw SFU) [1, 15] | significant SFU as a percentage of maximal peptide SFU [1, 15] | patients that did not respond to either peptide [2, 16] | patients that responded to both peptides [2, 16] | IFN-γ ELISpot response (raw SFU) [3] | IFN-γ ELISpot response (SFU) [4] | IFN-γ ELISpot response (SFU) [5] | significant SFU as a percentage of maximal peptide SFU [5] | IFN-γ ELISpot response (raw SFU) [6] | IFN-γ ELISpot response (SFU) [7] | IFN-γ ELISpot response (SFU) [8, 17] | IFN-γ ELISpot response (raw SFU) [8, 18] | IFN-γ ELISpot response (raw SFU) [9] | IFN-γ ELISpot response (SFU) [10, 19] | other results |
| --- | --- | --- | --- | --- | --- | --- | --- | --- | --- | --- | --- | --- | --- | --- | --- | --- | --- | --- | --- | --- | --- |
| PEQPIPEQPQPYPQQ | responded to all three peptides to varying degrees | All three patients responded | 317 SFU | *** (***: >70%) | 162 SFU | *** (***: >70%) | 142 SFU | *** (***: >70%) | 9 patients | 8 patients | 2 SFU | 1 SFU | 143 SFU | *** (***: >70%) | 48 SFU | 156 SFU | 1 SFU | 1 SFU | 3 SFU | 107 SFU | responses compared with DQ2.5-ave-1c responses ([1]; third patient, after barley challenge (FIG. 1b)): slightly lower; patients that responded to the hordein peptide but not the avenin peptide [2, 16]: 2 patients; responses compared with AAB32025 (7-21) [Q7 to pyroE, Q15 to E, and Q21 to Q-amide] responses ([2]; combined wheat, barley, and rye challenge): generally higher; significant SFU as a percentage of maximal peptide SFU [6]: ** (**: 40-70%); significant SFU as a percentage of maximal peptide SFU [7]: *** (***: >70%); significant SFU as a percentage of maximal peptide SFU [10, 19]: *** (***: >70%); IFN-γ ELISpot response (raw SFU) [10, 20]: 86 SFU; significant SFU as a percentage of maximal peptide SFU [10, 20]: *** (***: >70%); IFN-γ ELISpot response (raw SFU) [11]: 4 SFU |
| YQPYPEQEQPILQQ | responded to all three peptides to varying degrees | All three patients responded | 59 SFU | ^^ (^^: 10-20%) | 204.5 SFU | *** (***: >70%) | 26 SFU | ^^ (^^: 10-20%) | 9 patients | 8 patients | 2 SFU | 145 SFU | 114 SFU | ** (**: 40-70%) | 18 SFU | 1 SFU | 238 SFU | 300 SFU | 5 SFU | 3 SFU | responses compared with DQ2.5-hor-3a responses ([1]; 2/3 patients, after barley challenge (FIG. 1b)): lower; patients with lower polyclonal T cell responses compared with 1103203A (31-45) peptide ([1]; after barley challenge): 2/3; significant SFU as a percentage of maximal peptide SFU [4]: ** (**: 40-70%); significant SFU as a percentage of maximal peptide SFU [8, 17]: *** (***: >70%); significant SFU as a percentage of maximal peptide SFU [8, 18]: *** (***: >70%); IFN-γ ELISpot response (raw SFU) [10, 20]: 2 SFU; IFN-γ ELISpot response (raw SFU) [11]: 4 SFU; response following oats challenge ([12]; three additional patients that responded to the peptide after barley challenge): did not respond; response after previous oats challenge ([12]; three patients that responded after the combined grain challenge): no responses |
